Measured values reported in paper PMC9597602, “Metal Complexes as Antifungals? From a Crowd-Sourced Compound Library to the First In Vivo Experiments” (JACS Au, 2022).
Where two headings read alike, the source gives them in different places.

Assays:
[1] = test system: Acinetobacter baumannii ATCC 19606 type strain; assay: CO-ADD antibacterial MIC assay; type: cell-based; conditions: initial CO-ADD dose-response screening; ≥80% growth inhibition
Method in brief: (§1)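 MIC = lowest concentration inhibiting growth ≥80% by OD600 versus media-only and untreated-bacteria controls. Mid-log cultures in CAMHB at 5 × 10^5 CFU/mL, 37 °C, 18 h, no shaking. Two technical replicates in two independent biological assays (n = 4).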

[2] = test system: Escherichia coli ATCC 25922 FDA control strain; assay: CO-ADD antibacterial MIC assay; type: cell-based; conditions: initial CO-ADD dose-response screening; ≥80% growth inhibition
Method in brief: as §1

[3] = test system: Pseudomonas aeruginosa ATCC 27853 QC control strain; assay: CO-ADD antibacterial MIC assay; type: cell-based; conditions: initial CO-ADD dose-response screening; ≥80% growth inhibition
Method in brief: as §1

[4] = test system: methicillin-resistant Staphylococcus aureus ATCC 43300; assay: CO-ADD antibacterial MIC assay; type: cell-based; conditions: initial CO-ADD dose-response screening; ≥80% growth inhibition
Method in brief: as §1

[5] = test system: Candida albicans ATCC 90028 NCCLS11; assay: Antifungal MIC assay; type: cell-based; conditions: for MIC Candida albicans ATCC 90028 / MIC50 Candida albicans ATCC 90028: extended panel; for MIC Candida albicans ATCC 90028: second batch, ≥80 or ≥50% inhibition; for MIC50 Candida albicans ATCC 90028: 50% inhibition, MIC score 2; for MIC Ca: initial CO-ADD dose-response screening, ≥80% growth inhibition
Method in brief: (§2)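 Colonies from 3-day YPD plates (30 °C) were suspended, diluted into YNB and added to compound plates at a final density of 2.5 × 10^3 CFU/mL. After 36 h at 35 °C without agitation, growth inhibition of ≥80% defined the MIC. Two technical replicates, 2–4 independent runs.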

[6] = test system: Cryptococcus neoformans H99 ATCC 208821 type strain; assay: Antifungal MIC assay; type: cell-based; conditions: for MIC: read-out: MIC* Cryptococcus neoformans ATCC 208821; for MIC50 Cryptococcus neoformans ATCC 208821: 50% inhibition, MIC score 2; for MIC Cn: initial CO-ADD dose-response screening, ≥80% growth inhibition
Method in brief: as §2

[7] = test system: HEK-293 human embryonic kidney cells ATCC CRL-1573
Description: The cells were incubated together with the compounds for 20 h at 37 °C in 5% CO2. […] Tamoxifen (Sigma T5648) was used as internal control on each plate.

[8] = test system: human red blood cells; type: cell-based
Method in brief: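 Washed human erythrocytes at 0.5 × 10^8 cells/mL incubated with compound, then centrifuged. Haemolysis read as supernatant OD405, normalised to untreated cells (0%) and 1% Triton X-100 (100%), with melittin as internal plate control.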

[9] = test system: Candida auris CBS10913 JCM 15448; assay: Antifungal MIC assay, extended panel; type: cell-based; conditions: extended panel; for MIC Candida auris CBS10913: second batch, ≥80 or ≥50% inhibition; for MIC50 Candida auris CBS10913: 50% inhibition, MIC score 2
Method in brief: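 This broth dilution MIC test for yeast used colonies cultured 3 days at 30 °C on YPD agar, suspended to 1 × 10^6 to 5 × 10^6 CFU/mL by OD530 and diluted with YNB. Cells were added at a final 2.5 × 10^3 CFU/mL (50 μL total) to 384-well plates with compound, incubated unshaken at 35 °C for 36 h, with fluconazole as an internal control on every plate.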

[10] = test system: Candida auris CBS12373 KCTC 17810; assay: Antifungal MIC assay, extended panel; type: cell-based; conditions: extended panel; for MIC50 Candida auris CBS12373: 50% inhibition, MIC score 2
Method in brief: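 This broth microdilution MIC test followed the reference method for antifungal susceptibility testing of yeasts. Fluconazole served as the internal control on every plate. Inoculum came from 3-day YPD agar cultures, was diluted in YNB to 2.5 × 10^3 CFU/mL in 50 μL per well of 384-well plates, and was incubated 36 h at 35 °C. Compounds ran as two technical replicates across two to four independent assays.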

[11] = test system: Candida glabrata ATCC 90030 NCCLS 84; assay: Antifungal MIC assay, extended panel; type: cell-based; conditions: extended panel, second batch; ≥80 or ≥50% inhibition
Description: (§3) For the fungal assays, both fungi (yeast) strains were cultured for 3 days on Yeast Extract-Peptone Dextrose (YPD; Becton Dickinson 242720) agar at 30 °C. A yeast suspension of 1 × 10^6 to 5 × 10^6 CFU/mL (as determined by OD530) was prepared from five colonies from the agar plates, subsequently diluted with Yeast Nitrogen Base media (YNB; Becton Dickinson 233520), and added to each well of the compound containing plates (384-well plates, NBS; Corning CLS3640), giving a final cell density of 2.5 × 10^3 CFU/mL and a total volume of 50 μL. Plates were covered and incubated at 35 °C for 36 h without shaking. […] MIC values were recorded as the lowest concentration at which the growth was inhibited by ≥80%, equivalent to ″optically clear-to-slightly hazy″ or MIC score of 0–1 as per CLSI guidelines M27 Reference Method for Broth Dilution Antifungal Susceptibility Testing of Yeasts. […] Fluconazole (Sigma F8929) was used as internal control on each plate for all strains. All compounds were tested as two technical replicates in two to four independent biological assays, n = 4–8 final data.

[12] = test system: Candida tropicalis ATCC 750; assay: Antifungal MIC assay, extended panel; type: cell-based; conditions: extended panel, second batch; ≥80 or ≥50% inhibition
Description: as §3

[13] = test system: Cryptococcus deuterogattii ATCC 32609 VGII; assay: Antifungal MIC assay, extended panel; type: cell-based; conditions: extended panel, second batch; ≥80 or ≥50% inhibition
Description: as §3

[14] = test system: Cryptococcus deuterogattii CBS7750 VGII; Serotype B; assay: Antifungal MIC assay, extended panel; type: cell-based; conditions: extended panel, second batch; ≥80 or ≥50% inhibition
Description: as §3

[15] = test system: Candida glabrata ATCC 90030 NCCLS 84; assay: Antifungal MIC assay, extended panel; type: cell-based; conditions: extended panel; 50% inhibition, MIC score 2
[16] = test system: Candida tropicalis ATCC 750; assay: Antifungal MIC assay, extended panel; type: cell-based; conditions: extended panel; 50% inhibition, MIC score 2
[17] = test system: Cryptococcus deuterogattii CBS7750 VGII; Serotype B; assay: Antifungal MIC assay, extended panel; type: cell-based; conditions: extended panel; 50% inhibition, MIC score 2
[18] = test system: Cryptococcus deuterogattii ATCC 32609 VGII; assay: Antifungal MIC assay, extended panel; type: cell-based; conditions: extended panel; 50% inhibition, MIC score 2
[19] = extended panel, second batch, ≥80 or ≥50% inhibition
[20] = read-out: HEK293 CC50, ranges obtained upon retesting, new batch
[21] = initial CO-ADD screening, 1 h, 10% hemolysis
[22] = ranges obtained upon retesting, new batch

SMILES | MIC Ab [1] | MIC Ec [2] | MIC Pa [3] | MIC MRSA (Sa) [4] | MIC Candida albicans ATCC 90028 [5] | MIC50 Candida albicans ATCC 90028 [5] | MIC Ca [5] | MIC [6, 19] | MIC50 Cryptococcus neoformans ATCC 208821 ([6]; extended panel) | MIC Cn [6] | RBC HC10 [8, 21] | RBC HC10 [8, 22] | MIC Candida auris CBS10913 [9] | MIC50 Candida auris CBS10913 [9] | MIC50 Candida auris CBS12373 [10] | MIC Cryptococcus deuterogattii ATCC 32609 [13] | MIC50 Candida glabrata ATCC 90030 [15] | MIC50 Candida tropicalis ATCC 750 [16] | MIC50 Cryptococcus deuterogattii CBS7750 [17] | MIC50 Cryptococcus deuterogattii ATCC 32609 [18] | other results
CS(=O)(=O)[O][Pd][c]1ccccc1-c1ccccc1N.CS(=O)(=O)[O][Pd][c]1ccccc1-c1ccccc1N [Pd2] | >20 µM | >20 µM | >20 µM | >20 µM | 0.05 to 0.2 µM | 0.049 to 0.195 µM | 1.25 µM | 0.024 µM | ≤0.006 to 0.024 µM | 0.31 µM | >20 µM | 0.2 to 3 µM | 0.024 to 0.098 µM | 0.024 to 0.098 µM | 0.024 to 0.049 µM | 0.024 to 0.049 µM | 0.012 to 0.195 µM | 0.195 to 0.391 µM | ≤ 0.006 µM | 0.024 to 0.098 µM | CC50 [7, 20]: 38 to 53 µM; CC50 ([7]; read-out: HEK CC50, initial CO-ADD screening, 20 h): > 20 µM; MIC Candida auris CBS12373 ([10]; second batch, ≥80 or ≥50% inhibition): 0.024 to 0.049 µM; MIC Candida glabrata ATCC 90030 [11]: 0.049 to 0.195 µM; MIC Candida tropicalis ATCC 750 [12]: 0.195 to 0.391 µM; MIC [14]: 0.098 µM
Cc1c(C)c(-c2ccc(-c3ccccc3)cc2)[c-](C)c1C.Cc1ccccc1NC1=[NH+][Ir]([Cl])[NH]C(NS(=O)(=O)c2cccc3c(N(C)C)cccc23)=N1 [Ir3] | >32 µg/mL | >32 µg/mL | >32 µg/mL | 0.5 µg/mL | 0.024 to 0.098 µM | 0.049 µM | 2 µg/mL | 0.024 µM | 0.024 µM | 1 µg/mL | >32 µg/mL | 3 to 41 µM | 0.024 to 0.098 µM | 0.098 µM | 0.024 to 0.049 µM | 0.049 to 0.2 µM | 0.098 µM | 0.098 µM | 0.024 µM | 0.049 to 0.098 µM | HEK CC50 ([7]; initial CO-ADD screening, 20 h): >32 µg/mL; CC50 [7, 20]: 54 to 76 µM; MIC [11]: 0.098 µM; MIC [12]: 0.098 µM; MIC Cryptococcus deuterogattii CBS7750 [14]: 0.024 to 0.049 µM
Cc1c(C)c(-c2ccc(-c3ccccc3)cc2)[c-](C)c1C.Cc1ccccc1NC1=[NH+][Ir]([Cl])[NH]C(NS(=O)(=O)c2ccc([N+](=O)[O-])cc2)=N1 [Ir2] | >32 µg/mL | >32 µg/mL | >32 µg/mL | 1 µg/mL | 0.049 to 0.098 µM | 0.049 to 0.098 µM | 2 µg/mL |  | 0.024 to 0.098 µM | 2 µg/mL | >32 µg/mL | 2 to 76 µM | 0.049 to 0.098 µM | 0.049 to 0.098 µM | 0.024 µM | 0.098 to 0.195 µM | 0.098 to 0.195 µM | 0.098 to 0.195 µM | 0.012 to 0.024 µM | 0.098 to 0.195 µM | MIC Cryptococcus neoformans ATCC 208821 [6, 19]: 0.024 to 0.049 µM; HEK CC50 ([7]; initial CO-ADD screening, 20 h): >32 µg/mL; MIC ([10]; second batch, ≥80 or ≥50% inhibition, read-out: MIC* Candida auris CBS12373): 0.024 µM; MIC [11]: 0.098 µM; MIC Candida tropicalis ATCC 750 [12]: 0.098 to 0.195 µM; MIC [14]: 0.024 µM
